{"source": "patent US11225490B2", "about": "“Prodrugs of secondary amine compounds” (Alkermes Pharma Ireland Limited, priority 2011, dated 2022)"}
{"experiment": "Pharmacokinetic evaluation of prodrugs in rats (plasma olanzapine and prodrug after intramuscular injection)", "type": "in vivo, Male Sprague-Dawley rats", "conditions": "([Prodrug AUClast/MWprodrug]/[OLZ AUCINF/MWOLZ])*100, IM, dose 3 mg", "method": "Male Sprague-Dawley rats (Charles River Laboratories, Wilmington, Mass.) 25 male Sprague-Dawley rats are obtained. Approximately 24 rats are used in each study. Rats are approximately 325-350 g at time of arrival, and are housed 2 per cage with ad libitum chow and water. Environmental conditions in the housing room are 64-76° F., 30% to 70% relative humidity, and 12:12-h light:dark cycle. All experiments are approved by the Institutional Animal Care and Use Committee.\nProdrug compounds (Compound 56, Compound 111, and Compound 112) of the invention and corresponding parent drugs of the prodrugs are tested.\nRats are dosed IM by means of a 25 gauge, ⅝ in. needle with 1 cc syringe. 0.3mL suspension is withdrawn from the vial containing the test compound. The rat is injected in the muscles of the hind limb after anesthesia with isoflourane. Blood samples are collected via a lateral tail vein after brief anesthesia with Isoflurane. A 27½ G needle and lcc syringe without an anticoagulant is used for the blood collection. Approximately 250 μL of whole blood is collected at each sampling time point of 1 hour, 6 hours, 24 hours and 2, 3, 6, 7, 10, 14 days after administration. Once collected, whole blood is immediately transferred to tubes containing an esterase inhibitor and anti-coagulant, inverted 10-15 times and immediately placed on ice. The tubes are centrifuged for 2 minutes at >14,000 g's (11500 RPMs using Eppendorf Centrifuge at 2-6° C. to separate plasma. Plasma samples are transferred to labeled plain tubes and stored frozen at <−70° C. The study design is shown in Table 5 and the PK results are given in Table 6.\nThe Olanzapine and prodrug concentrations in plasma samples were analyzed by liquid chromatography-tandem mass spectroscopy using appropriate parameters for each compound.\nHalf life, maximal concentration, and AUC are calculated using WinNonlin software, version 5.2 (Pharsight, St. Louis, Mo.). (FIGS. 1-4)."}
{"smiles": "CCCCCCCCCCCCCCCC(=O)OCOC(=O)N1C(N2CCN(C)CC2)=c2cc(C)sc2=Nc2ccccc21", "note": "[Compound 56, (palmitoyloxy)methyl 2-methyl-4-(4-methylpiperazin-1-yl)-5H-benzo[b]thieno[2,3-e][1,4]diazepine-5-carboxylate]", "Relative exposure of prodrug": "Not detected"}
{"smiles": "CCCCCCCCCCCCCCCCCC(=O)OCOC(=O)N1C(N2CCN(C)CC2)=c2cc(C)sc2=Nc2ccccc21", "note": "[Compound 111, (stearoyloxy)methyl 2-methyl-4-(4-methylpiperazin-1-yl)-5H-benzo[b]thieno[2,3-e][1,4]diazepine-5-carboxylate]", "Relative exposure of prodrug": "<3%"}
{"smiles": "CCCCCCCCCCCCCCCCCCCC(=O)OCOC(=O)N1C(N2CCN(C)CC2)=c2cc(C)sc2=Nc2ccccc21", "note": "[Compound 112, (icosanoyloxy)methyl 2-methyl-4-(4-methylpiperazin-1-yl)-5H-benzo[b]thieno[2,3-e][1,4]diazepine-5-carboxylate]", "Relative exposure of prodrug": "12%"}
